Measurements as given in patent publication US20220098620A1, “NOVEL NUCLEIC ACID MODIFIERS” (THE BROAD INSTITUTE, INC., priority 2019, published 2022).

Tested on: GAPDH locus
Assay: HiBiT sequence knock-in assay (NanoLuc luciferase complementation)
Format: cell-based
Source text: FIG. 39A-39E—Schematic of the HiBiT assay to check the HDR-mediated knock-in of the 33-nt DNA fragment. (FIG. 39A) General gRNA and ssODN design strategy for HDR-based HiBiT sequence knock-in right before the stop codon of the gene of interest. (FIG. 39B) The knock-in results in the expression of a fusion protein having a C-terminal HiBiT tag, which is a small fragment of the NanoLuc luciferase. When an excess amount of the other fragment of NanoLuc (LgBiT) is supplied, a fully functional NanoLuc is reconstituted. The resulting luminescence signal is proportional to the HDR efficiency. […]
Applicants then designed an ssODN that would insert a 33-nt DNA fragment (HiBiT sequence) at a gene of interest by HDR pathway (FIG. 39A). […] When complemented by LgBiT, the remainder of NanoLuc, the full-length luciferase is reconstituted to generate a luminescence signal proportional to the degree of ssODN incorporation, providing an easy readout for measuring the level of HDR (FIG. 39B). Applicants chose GAPDH as the first target gene (FIG. 39C) owing to its abundant expression in many cell types, which should allow for the reliable detection of the luminescence signal. […] Using the negative control ssODN without the complementary sequence, Applicants determined if appending the DNA adaptor to the cysteine affected Cas9 activity using the HiBiT insertion assay (FIG. 13b). […]

Structure (SMILES): O=c1cc(N2CCOCC2)oc2c(-c3cccc4c3sc3ccccc34)cccc12 [KU-57788]
- HDR enhancement by NHEJ pathway inhibitors in the HiBiT assay: enhanced HDR enhancement

Structure (SMILES): CCN1CCN(CC(=O)Nc2ccc(-c3cccc4c(=O)cc(N5CCOCC5)oc34)c3sc4ccccc4c23)CC1 [KU-0060648]
- HDR enhancement by NHEJ pathway inhibitors in the HiBiT assay: enhanced HDR enhancement
